Drawing on patent US20100298402A1, “STILBENE DERIVATIVES AS PSTAT3/IL-6 INHIBITORS” (ORCHID RESEARCH LABORATORIES LIMITED, priority 2007, published 2010), this text covers inhibition and GI50 for 24 molecules.

Test [1] deals with IL-6 in supernatant of NCIH 460 cells. In words: Measuring IL-6 in culture supernatants (ELISA). The following applies: Homo sapiens, NCI-H460, 5 hours incubation. The format is cell-based. Background: ELISA stands for enzyme-linked immunosorbent assay.
In test [2] the test system is HCT 116 (colon), NCIH460 (lung) and U251 (glioma) cell lines. Kind of test: Anti-cancer screen (MTT growth inhibition, 48 hours).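 Further: mean GI50 across the three cell lines.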 In kind it is cell-based. The following applies: Homo sapiens; HCT 116, NCIH460 and U251 cell lines; MTT after 48 hours of incubation. As for the experimental part:
The experimental drugs were screened for anti-cancer activity in three cell lines using five concentrations for each compound. The cell lines—HCT 116 (colon), NCIH460 (lung) and U251 (glioma) were maintained in DMEM containing 10% fetal bovine serum. 96-well microtiter plates are inoculated with cells in 100 μL of cell suspension (5×10^4 cells/mL) for 24 hours at 37° C., 5% CO2, 95% air and 100% relative humidity. A separate plate with these cell lines is also inoculated to determine cell viability before the addition of the compounds (T0)
Following 24-hour incubation, test compounds were added to the 96 well plates. Each plate contains one of the above cell lines and the following samples in triplicate: five different dilutions (0.01, 0.1, 1, 10 and 100 μM) of four test compounds, appropriate dilutions of a cytotoxic standard and growth medium (untreated) wells. Test compounds were dissolved in DMSO to prepare 20 mM stock solutions on the day of drug addition and serial dilutions were carried out in complete growth medium at 2× strength, such that 100 μL added to the wells gave final concentrations (0.01, 0.1, 1, 10 and 100 μM) in the well. SAHA was used as the standard drug in these experiments.
For T0 measurement, 24 hours after seeding the cells, 20 μL of 3-(4,5-dimethyl-2-thiazolyl)-2,5-diphenyl-2H-tetrazolium (MTT) solution per well was added to the ‘T0’ plate and incubated for 3 hours at 37° C. in a CO2 incubator. The plate containing cells and test compounds was treated similarly after 48 hours of incubation. After 3 hours of MTT addition, well contents were aspirated carefully followed by addition of 150 μL DMSO per well. Plates were agitated to ensure dissolution of the formazan crystals in DMSO and absorbance was read at 570 nm (A570).
Percent growth (PG) is calculated relative to the control and zero measurement wells (T0) as follows:
PG values are plotted against drug concentration to derive the following: GI50 is the concentration required to decrease PG by 50% vs control; TGI is the concentration required to decrease PG by 100% vs control and LC50 is the concentration required to decrease PG by 50% vs T0. (Mosmann T. Rapid colorimetric assay for cellular growth and survival: application to proliferation and cytotoxicity assays. (J. Immunol. Methods. 1983, 65 (1-2), 55-63; Anne Monks et al); feasibility of high-flux anticancer drug screen using a diverse panel of cultured human tumor cell lines”. (JNCI, Vol. 83, No. 11, 1991). Results for growth inhibition of synthesized compounds are given in Table-1.

For the molecule `COC(=O)/C(=C/c1cc(OC)cc(OC)c1)c1ccc(OCC(O)CNCc2ccc(OC)cc2OC)cc1` (centres unmarked) [Example 3, 2-{4-[3-(2,4-Dimethoxybenzylamino)-2-hydroxypropoxyl]phenyl}-3-(3,5-dimethoxyphenyl)acrylic acid methyl ester], the inhibition – broadly, the drop in the measured response relative to a control, in per cent – at 10 µM in test [1] was found to be 67%. Further, the GI50 (as a rule, the concentration giving 50% growth inhibition) in test [2] worked out at 4.1 µM.

In the case of `COC(=O)/C(=C/c1cc(OC)cc(OC)c1)c1ccc(OCC(O)CNCc2ccc(OC(F)(F)F)cc2)cc1` (centres unmarked) [Example 4], in test [2], the GI50 came out at 32.4 µM. In other words, the double-digit micromolar range. `COC(=O)/C(=C/c1cc(OC)cc(OC)c1)c1ccc(OCC(O)CNCCOc2ccccc2OC)cc1` (centres unmarked) [Example 5, 2-{4-[3-(2-Methoxyphenoxyethylamino)-2-hydroxypropoxyl]phenyl}-3-(3,5-dimethoxyphenyl)acrylic acid methyl ester] registered an inhibition at 10 µM in test [1] of 37%. This molecule also had a GI50 in test [2] of 3.1 µM.

Turning to `COC(=O)/C(=C/c1cc(OC)c(OC)c(OC)c1)c1ccc(OCC(O)CNCc2ccc(OC)cc2OC)cc1` (centres unmarked) [Example 6, 2-{4-[3-(2,4-Dimethoxybenzylamino)-2-hydroxypropoxyl]phenyl}-3-(3,4,5-trimethoxyphenyl)acrylic acid methyl ester], the inhibition at 10 µM in test [1] stood at 73%. Moreover, the GI50 in test [2] was 5.2 µM.

`COC(=O)/C(=C/c1ccc(F)c(OC)c1)c1ccc(OCC(O)CNCCOc2ccccc2OC)cc1` (centres unmarked) [Example 7, 2-{4-[3-(2-Methoxyphenoxyethylamino)-2-hydroxypropoxyl]phenyl}-3-(4-fluoro-3-methoxyphenyl)acrylic acid methyl ester] came in with an inhibition at 10 µM in test [1] of 58%. This molecule also yielded a concentration for 50% growth inhibition (GI50) in test [2] of 2.2 µM.

In turn, `COC(=O)/C(=C/c1cc(OC)c(OC)c(OC)c1)c1ccc(OCC(O)CNCc2ccc(OC(F)F)cc2)cc1` (centres unmarked) [Example 8, 2-{4-[3-(4-Difluoromethoxybenzylamino)-2-hydroxypropoxyl]phenyl}-3-(3,4,5-trimethoxyphenyl)acrylic acid methyl ester] showed an inhibition at 10 µM in test [1] of 44%. Also, growth in test [2] was halved (GI50) at 3.6 µM. Consider `COC(=O)/C(=C/c1ccc(F)c(OC)c1)c1ccc(OCC(O)CNCc2ccc(OC)cc2OC)cc1` (centres unmarked) [Example 9, 2-{4-[3-(2,4-Dimethoxybenzylamino)-2-hydroxypropoxyl]phenyl}-3-(4-fluoro-3-methoxyphenyl)acrylic acid methyl ester], for which 10 µM produced 34% inhibition in test [1]. The molecule also displayed a 50% growth inhibitory concentration (GI50) in test [2] of over 100 µM. Consider `COC(=O)/C(=C/c1ccc(OCC(O)CNCc2ccc(F)cc2)cc1)c1ccccc1` (centres unmarked) [Example 10, 3-{4-[3-(4-Fluorobenzylamino)-2-hydroxypropoxyl]phenyl}-2-phenylacrylic acid methyl ester], for which, in test [1], testing at 10 µM gave an inhibition of 4.5%. Also, the GI50 in test [2] came out at 35.3 µM. Take `COC(=O)/C(=C/c1cc(OC)c(OC)c(OC)c1)c1ccc(OCC(O)CNCCOc2ccccc2OC)cc1` (centres unmarked) [Example 11, 2-{4-[3-(2-Methoxyphenoxyethylamino)-2-hydroxypropoxyl]phenyl}-3-(3,4,5-trimethoxyphenyl)acrylic acid methyl ester]: testing at 10 µM in test [1] gave an inhibition of 29%. The molecule also showed a 50% growth inhibitory concentration (GI50) in test [2] of 37.3 µM. The matching figures for `COC(=O)/C(=C/c1ccc(OCC(O)CNCc2ccc(OC)cc2OC)cc1)c1ccc(OC)cc1` (centres unmarked) [Example 12, 3-{4-[3-(2,4-Dimethoxybenzylamino)-2-hydroxypropoxyl]phenyl}-2-(4-methoxyphenyl)acrylic acid methyl ester]: 55% and 3 µM. `COC(=O)/C(=C/c1ccc(OC)c(OC)c1)c1ccc(OCC(O)CNCc2ccc(OC)cc2OC)cc1` (centres unmarked) [Example 13, 2-{4-[3-(2,4-Dimethoxybenzylamino)-2-hydroxypropoxyl]phenyl}-3-(3,4,-dimethoxyphenyl)acrylic acid methyl ester] showed an inhibition at 10 µM in test [1] of 67%. The molecule further gave a concentration for 50% growth inhibition (GI50) in test [2] of 3.5 µM.

The molecule `COC(=O)/C(=C/c1ccc(OC)c(OC)c1)c1ccc(OCC(O)CNCCOc2ccccc2OC)cc1` (centres unmarked) [Example 14, 2-{4-[3-(2-Methoxyphenoxyethylamino)-2-hydroxypropoxyl]phenyl}-3-(3,4,-dimethoxyphenyl)acrylic acid methyl ester] yielded an inhibition at 10 µM in test [1] of 38%. Further, the GI50 in test [2] stood at 4 µM. As to `COC(=O)/C(=C/c1ccc(F)c(F)c1)c1ccc(OCC(O)CNCc2ccc(OC)cc2OC)cc1` (centres unmarked) [Example 15, 2-{4-[3-(2,4-Dimethoxybenzylamino)-2-hydroxypropoxyl]phenyl}-3-(3,4-difluorophenyl)acrylic acid methyl ester], testing at 10 µM in test [1] gave an inhibition of 44%. Also, halving of growth in test [2] (GI50) required 2.8 µM. `COC(=O)/C(=C/c1ccc(OCC(O)CNCc2ccc(OC)cc2OC)cc1)c1ccccc1` (centres unmarked) [Example 16, 3-{4-[3-(2,4-Dimethoxybenzylamino)-2-hydroxypropoxyl]phenyl}-2-phenyl acrylic acid methyl ester] gave an inhibition at 10 µM in test [1] of 68%. In addition, the concentration for 50% growth inhibition (GI50) in test [2] worked out at 3.1 µM.

The molecule `COC(=O)/C(=C/c1ccccc1)c1ccc(OCC(O)CNCc2ccc(OC)cc2OC)cc1` (centres unmarked) [Example 17, 2-{4-[3-(2,4-Dimethoxybenzylamino)-2-hydroxypropoxy]phenyl}-3-phenylacrylic acid methyl ester] came in with an inhibition at 10 µM in test [1] of 25%. In test [2], this molecule had a GI50 of 3.4 µM. Take `COC(=O)/C(=C/c1cc(OC)cc(OC)c1)c1ccc(OCC(O)CNCc2ccccc2)cc1` (centres unmarked) [Example 18, 2-{4-[3-(Benzylamino)-2-hydroxypropoxy]phenyl}-3-(3,5-dimethoxyphenyl)acrylic acid methyl ester]: in test [1], the inhibition at 10 µM came out at 25%. The GI50 in test [2] was determined as 5.3 µM. In turn, `COC(=O)/C(=C/c1ccc(F)c(C)c1)c1ccc(OCC(O)CNCCOc2ccccc2OC)cc1` (centres unmarked) [Example 19, 2-{4-[3-(2-Methoxyphenoxyethylamino)-2-hydroxypropoxy]phenyl}-3-(4-fluoro-3-methylphenyl)acrylic acid methyl ester] gave an inhibition at 10 µM in test [1] of 15.9%. In test [2], this molecule displayed a GI50 of 4.9 µM. Taken in the same sequence, the figures for `COC(=O)/C(=C/c1cc(OC)cc(OC)c1)c1ccc(OCC(O)CNCc2ccc(F)cc2)cc1` (centres unmarked) [Example 20, 2-{4-[3-(4-Fluorobenzylamino)-2-hydroxypropoxy]phenyl}-3-(3,5-dimethoxyphenyl)acrylic acid methyl ester] were 0% and 16.8 µM. Regarding `COC(=O)/C(=C/c1ccc(F)c(C)c1)c1ccc(OCC(O)CNCc2ccccc2)cc1` (centres unmarked) [Example 21, 2-{4-[3-(Benzylamino)-2-hydroxypropoxy]phenyl}-3-(4-fluoro-3-methylphenyl)acrylic acid methyl ester], in test [1], at 10 µM the inhibition was 22.8%. Also, it took 13.1 µM to inhibit growth in test [2] by half (GI50).

Molecule `COC(=O)/C(=C/c1ccc(Cl)cc1)c1ccc(OCC(O)CNCc2ccc(OC)cc2OC)cc1` (centres unmarked) [Example 22, 2-{4-[3-(2,4-Dimethoxybenzylamino)-2-hydroxypropoxy]phenyl}-3-(4-chlorophenyl)acrylic acid methyl ester] came in with an inhibition at 10 µM in test [1] of 59.8%. This molecule also gave a GI50 in test [2] of 16.1 µM.

As for `COC(=O)/C(=C/c1ccc(SC)cc1)c1ccc(OCC(O)CNCCOc2ccccc2OC)cc1` (centres unmarked) [Example 23, 2-{4-[3-(2-Methoxyphenoxy-ethylamino)-2-hydroxy-propoxy]-phenyl}-3-(4-(methylthio)phenyl)-acrylic acid methyl ester], in test [1], the inhibition at 10 µM turned out to be 54.2%. The same molecule came in with a GI50 in test [2] of 11.7 µM. Taken in the same sequence, the figures for `COC(=O)/C(=C/c1ccccc1)c1ccc(OCC(O)CNCc2ccccc2)cc1` (centres unmarked) [Example 24, 2-{4-[3-(Benzylamino)-2-hydroxypropoxy]phenyl}-3-phenylacrylic acid methyl ester] were 0% and 15.5 µM. The matching figures for `COC(=O)/C(=C/c1ccccc1)c1ccc(OCC(O)CNCCOc2ccccc2OC)cc1` (centres unmarked) [Example 25, 2-{4-[3-(2-Methoxyphenoxyethylamino)-2-hydroxypropoxy]phenyl}-3-phenylacrylic acid methyl ester]: 20.5% and 27.8 µM.

`COC(=O)/C(=C/c1ccc(F)cc1)c1ccc(OCC(O)CNCCOc2ccccc2OC)cc1` (centres unmarked) [Example 26, 2-{4-[3-(2-Methoxyphenoxyethylamino)-2-hydroxypropoxy]phenyl}-3-(4-fluorophenyl)acrylic acid methyl ester] came in with an inhibition at 10 µM in test [1] of 36.2%. The molecule further returned a GI50 in test [2] of 12.1 µM.
